Source: patent US7468370B2, “[1,7]naphthyridines as PDE4 inhibitors” (Novartis AG, priority 2002, dated 2008)
Counter-ions that a name gives are not always drawn.

Key:
human PDE4D = target: T1, human PDE4D (Homo sapiens, UniProt Q08499); assay: PDE4 Isoenzyme Inhibition Assay (Scintillation Proximity Assay, [3H]-cAMP); assay type: biochemical; details: recombinant 6His-tagged human PDE4D3 expressed in Sf21 cells; 1 μM cAMP; 1% DMSO; room temperature
T1 construct: PDE4 cDNA constructs containing the coding regions of the three isoenzymes; made in house; host or cells: Sf21 (Spodoptera frugiperda) insect cells, baculovirus (Bac-To-Bac)
T1 sequence (Q08499 1-673 isoform Q08499-2): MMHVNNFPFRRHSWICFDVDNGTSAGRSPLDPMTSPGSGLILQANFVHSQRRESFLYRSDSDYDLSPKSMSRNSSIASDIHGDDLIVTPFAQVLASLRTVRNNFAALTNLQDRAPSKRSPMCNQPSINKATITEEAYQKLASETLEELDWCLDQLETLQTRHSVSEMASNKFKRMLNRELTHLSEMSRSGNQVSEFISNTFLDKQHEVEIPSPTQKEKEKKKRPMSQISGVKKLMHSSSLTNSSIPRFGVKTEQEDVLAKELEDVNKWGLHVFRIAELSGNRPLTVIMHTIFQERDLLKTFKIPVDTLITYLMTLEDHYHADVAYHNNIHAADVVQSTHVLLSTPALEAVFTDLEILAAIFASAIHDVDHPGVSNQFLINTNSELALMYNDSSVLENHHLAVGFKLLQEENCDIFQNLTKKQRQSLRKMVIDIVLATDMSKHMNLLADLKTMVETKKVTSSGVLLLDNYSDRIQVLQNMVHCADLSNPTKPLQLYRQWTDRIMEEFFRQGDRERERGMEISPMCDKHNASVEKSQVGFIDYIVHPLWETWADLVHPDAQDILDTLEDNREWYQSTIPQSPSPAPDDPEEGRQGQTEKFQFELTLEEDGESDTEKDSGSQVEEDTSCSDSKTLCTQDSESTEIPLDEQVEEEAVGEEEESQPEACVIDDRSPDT
Method: PDE4 Expression: Sf21 cells are grown to a density of 2×10^6 cells/ml and infected with human PDE4A, PDE4B or PDE4D3 containing baculovirus to a multiplicity of infection (m.o.i.) of 1 for 72 hours. The infected cells are harvested by centrifugation at 1,400 g for 4 minutes at 4° C. and the cell pellets are frozen at −80° C. Sf21 (Spodoptera frugiperda 21) insect cells are routinely maintained at densities between 3×105 and 3×10^6 cells/ml in SF00 Serum Free Medium (Invitorgen Life Technologies). Sf21 cells (1×109) are resuspended in 100 ml cold (4° C.) Lysis Buffer (50 mM Na2HP04, 200 mM NaCl, 10 mM Imidazole). Cells are incubated on ice for 30 minutes then centrifuged at 15,000 g for 20 minutes at 4° C.
PDE4 Purification: The 6 Histidine-tagged PDE4 proteins are isolated from crude cell lysates by a batch-wise Ni-NTA purification strategy (QIAGEN). N-NTA resin is first pre-rinsed to remove ethanol preservative and equilibrated with Lysis Buffer. Cell lysate is added, (10 ml 50% Ni-NTA slurry resin per 50 ml lysate), and gently rotated on a mixer at 4° C. for 1-2 h. The sample is then centrifuged at 1,000 g for 5 minutes at 4° C. using Denley benchtop centrifuge. The supernatant is removed and the resin is washed 3 times with 50 ml ice cold Wash Buffer (50 mM Na2HP04, 300 mM NaCl and 20 mM imidazole) followed by centrifugation at 1,000 g for 5 minutes at 4° C. The 6His-tagged protein is eluted from the resin with 3×5 ml ice cold Elution Buffer (50 mM NaH2PO4, 300 mM NaCl, 250 mM imidazole) and collected by centrifugation at 1,000 g for 5 minutes at 4° C. The supernatants are then pooled before buffer exchange and concentration using a VivaScience 20 ml 5K 0.2 μM Concentrator. Samples are aliquoted and stored at −20° C.
PDE4 Assay: The assay is based on Amersham Pharmacia Biotech Scintillation Proximity Assay (SPA) technology. Enzyme is diluted with enzyme dilution buffer (10 mM Tris-HCl, pH 7.5 containing 1 mM EDTA) in order to obtain between 10-30% total substrate hydrolysis during the assay. The enzymatic reaction is started by adding 10 μl diluted enzyme to 80 μl substrate (0.1 μCi [3H]-cAMP, 1 μM cAMP) and 10 μl inhibitor solution in a 96-well microtiter plate. After 30-60 minutes incubation at room temperature the reaction is stopped by adding 50 μl PDE SPA beads (20 mg/ml). After 30 minutes the plate is centrifuged (3000 g, 10 minutes) and counted (Packard TopCount).
The concentration of DMSO is kept constant at 1% (v/v) throughout the assay. The concentration at which 50% inhibition occurs (IC50) is determined from inhibition—concentration curves in a conventional manner.

| melting point | IC50 (human PDE4D) | SMILES |
| --- | --- | --- |
| > 250 °C | – | N#Cc1cccc(-c2nc(N3CCNCC3)cc3cccnc23)c1 (as salt: hydrochloride) [Example 4, 3-(6-Piperazin-1-yl-[1,7]naphthyridin-8-yl)-benzonitrile] |
| 132 to 133 °C | 1 nM | N#Cc1cccc(-c2nc(N3CCC(O)C3)cc3cccnc23)c1 (centres unmarked) [Example 1, 3-[6-(3-Hydroxy-pyrrolidin-1-yl)-[1,7]naphthyridin-8-yl]-benzonitrile] |
| > 200 °C | 3.1 nM | N#Cc1cccc(-c2nc(N3CCC(C(=O)[O-])CC3)cc3cccnc23)c1.[Li+] [Example 3, 1-[8-(3-Cyano-phenyl)-[1,7]naphthyridin-6-yl]-piperidine-4-carboxylic acid, Lithium salt] |
| – | 2.5 nM | N#Cc1cccc(-c2nc(N3CCOCC3)cc3cccnc23)c1 [Example 12] |
| – | 10.4 nM | CN1CCN(c2cc3cccnc3c(-c3cccc(C#N)c3)n2)CC1 [Example 15] |
| – | 8 nM | O=C(O)C1CCN(c2cc3cccnc3c(-c3ccc(F)c(Cl)c3)n2)CC1 [Example 39] |
